Assay results: ChEMBL document CHEMBL3870312, “Rational modification of donepezil as multifunctional acetylcholinesterase inhibitors for the treatment of Alzheimer's disease” (Eur J Med Chem, 2016)
The source made the active and inactive calls. The calls are words filed in the database; no cut-off is given here.

Legend:
Acetylcholinesterase [1] = biological target: T1, Acetylcholinesterase (Homo sapiens, UniProt P22303)
Description: Inhibition of human erythrocytes AChE using acetylthiocholine iodide as substrate preincubated for 5 mins followed by substrate addition measured up to 3 mins by Ellman's method

Acetylcholinesterase [2] = biological target: Acetylcholinesterase (Electrophorus electricus, UniProt O42275)
Sequence of Acetylcholinesterase (Electrophorus electricus, UniProt O42275) (O42275 whole entry): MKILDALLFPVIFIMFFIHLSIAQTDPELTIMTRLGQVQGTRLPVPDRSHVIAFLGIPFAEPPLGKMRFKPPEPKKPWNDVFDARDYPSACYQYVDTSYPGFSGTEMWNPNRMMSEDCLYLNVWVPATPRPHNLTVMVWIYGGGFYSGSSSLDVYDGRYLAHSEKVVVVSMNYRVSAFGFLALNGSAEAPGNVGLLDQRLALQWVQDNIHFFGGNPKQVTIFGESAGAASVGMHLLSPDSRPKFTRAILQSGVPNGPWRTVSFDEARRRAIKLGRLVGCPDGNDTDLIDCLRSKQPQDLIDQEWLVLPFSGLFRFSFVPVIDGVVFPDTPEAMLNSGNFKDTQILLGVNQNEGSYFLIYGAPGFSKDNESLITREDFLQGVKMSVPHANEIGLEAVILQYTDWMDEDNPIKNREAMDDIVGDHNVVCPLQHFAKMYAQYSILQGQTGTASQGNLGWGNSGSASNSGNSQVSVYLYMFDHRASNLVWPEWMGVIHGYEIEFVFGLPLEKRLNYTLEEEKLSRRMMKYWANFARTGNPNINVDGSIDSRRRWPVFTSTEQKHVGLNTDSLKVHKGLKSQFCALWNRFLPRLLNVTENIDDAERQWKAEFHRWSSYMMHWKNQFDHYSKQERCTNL
Description: Inhibition of electric eel AChE using acetylthiocholine iodide as substrate preincubated for 5 mins followed by substrate addition measured up to 3 mins by Ellman's method

Cholinesterase [3] = biological target: Cholinesterase (Equus caballus, UniProt P81908)
Sequence of Cholinesterase (Equus caballus, UniProt P81908) (P81908 whole entry): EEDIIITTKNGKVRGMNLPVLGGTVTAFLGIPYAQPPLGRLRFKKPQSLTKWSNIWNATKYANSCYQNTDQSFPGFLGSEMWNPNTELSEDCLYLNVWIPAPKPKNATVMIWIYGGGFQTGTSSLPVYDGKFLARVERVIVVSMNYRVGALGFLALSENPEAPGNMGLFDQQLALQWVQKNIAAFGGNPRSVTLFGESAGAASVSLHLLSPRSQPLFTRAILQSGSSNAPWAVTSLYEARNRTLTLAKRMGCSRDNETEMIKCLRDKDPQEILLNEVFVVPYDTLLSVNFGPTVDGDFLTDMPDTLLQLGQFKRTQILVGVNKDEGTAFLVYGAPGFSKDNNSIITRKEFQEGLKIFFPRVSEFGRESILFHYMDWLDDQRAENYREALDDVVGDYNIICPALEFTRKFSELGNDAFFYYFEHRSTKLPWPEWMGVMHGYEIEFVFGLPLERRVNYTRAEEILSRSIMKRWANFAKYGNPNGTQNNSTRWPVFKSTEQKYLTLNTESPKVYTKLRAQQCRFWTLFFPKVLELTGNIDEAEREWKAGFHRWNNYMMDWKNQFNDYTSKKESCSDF
Description: Inhibition of equine serum BuChE using s-butyrylthiocholine iodide as substrate preincubated for 5 mins followed by substrate addition measured up to 3 mins by Ellman's method

Cholinesterase [4] = biological target: Cholinesterase (Homo sapiens, UniProt P06276)
Sequence of Cholinesterase (Homo sapiens, UniProt P06276) (P06276 whole entry): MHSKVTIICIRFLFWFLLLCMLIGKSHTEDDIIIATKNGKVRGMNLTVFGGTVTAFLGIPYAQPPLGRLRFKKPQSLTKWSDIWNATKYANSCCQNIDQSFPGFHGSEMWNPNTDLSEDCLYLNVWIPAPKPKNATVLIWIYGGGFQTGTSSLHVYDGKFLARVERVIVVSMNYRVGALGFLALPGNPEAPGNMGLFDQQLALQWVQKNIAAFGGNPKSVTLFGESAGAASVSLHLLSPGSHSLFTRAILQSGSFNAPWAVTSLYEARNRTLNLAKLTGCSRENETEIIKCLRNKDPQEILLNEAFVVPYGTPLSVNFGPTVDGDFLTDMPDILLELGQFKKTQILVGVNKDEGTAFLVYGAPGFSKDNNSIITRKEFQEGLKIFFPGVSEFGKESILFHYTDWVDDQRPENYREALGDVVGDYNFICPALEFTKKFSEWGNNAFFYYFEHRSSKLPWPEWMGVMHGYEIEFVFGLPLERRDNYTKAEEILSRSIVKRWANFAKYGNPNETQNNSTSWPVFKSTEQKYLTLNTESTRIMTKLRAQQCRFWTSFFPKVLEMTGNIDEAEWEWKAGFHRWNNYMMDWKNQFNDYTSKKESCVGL
Description: Inhibition of human serum BuChE using s-butyrylthiocholine iodide as substrate preincubated for 5 mins followed by substrate addition measured up to 3 mins by Ellman's method

[5] = biological target: Amyloid-beta precursor protein (Homo sapiens) (UniProt P05067); details: at 20 µM
Sequence of Amyloid-beta precursor protein (Homo sapiens) (P05067 whole entry, the tested form may be a part): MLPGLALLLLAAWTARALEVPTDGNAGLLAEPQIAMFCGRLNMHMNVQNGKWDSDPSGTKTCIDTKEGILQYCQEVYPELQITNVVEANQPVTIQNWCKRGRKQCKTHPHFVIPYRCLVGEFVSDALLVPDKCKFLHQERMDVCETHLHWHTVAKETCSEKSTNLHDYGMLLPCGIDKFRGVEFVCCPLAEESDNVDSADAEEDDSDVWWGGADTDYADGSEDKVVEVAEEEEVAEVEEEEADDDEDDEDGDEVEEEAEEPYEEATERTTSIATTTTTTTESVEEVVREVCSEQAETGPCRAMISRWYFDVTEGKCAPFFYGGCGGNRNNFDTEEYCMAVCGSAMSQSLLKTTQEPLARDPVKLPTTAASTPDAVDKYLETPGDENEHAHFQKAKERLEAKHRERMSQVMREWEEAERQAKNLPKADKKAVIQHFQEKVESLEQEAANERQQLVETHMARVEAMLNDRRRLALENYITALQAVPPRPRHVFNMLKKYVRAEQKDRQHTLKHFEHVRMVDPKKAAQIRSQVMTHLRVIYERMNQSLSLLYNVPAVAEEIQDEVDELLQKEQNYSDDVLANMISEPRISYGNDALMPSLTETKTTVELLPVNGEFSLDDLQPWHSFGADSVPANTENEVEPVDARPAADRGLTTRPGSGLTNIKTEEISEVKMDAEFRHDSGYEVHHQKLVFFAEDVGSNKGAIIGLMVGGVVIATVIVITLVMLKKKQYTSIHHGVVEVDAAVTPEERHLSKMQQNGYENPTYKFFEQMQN
Description: Inhibition of self-mediated aggregation of amyloid beta (1 to 42 residues) (unknown origin) at 20 uM incubated for 46 to 48 hrs by Thioflavin T binding assay relative to control

PC-12 [6] = experiment: Neuroprotective activity against amyloid beta (1 to 42 residues) induced cell death in rat PC12 cells assessed as increase in cell viability at 10 to 20 uM preincubated for 24 hrs followed by amyloid beta (1 to 42 residues) addition measured after 24 hrs by MTT assay; type: functional, cell-based
PC-12 [7] = experiment: Neuroprotective activity against Cu2+-amyloid beta (1 to 42 residues) induced cell death in rat PC12 cells assessed as increase in cell viability at 2.5 to 20 uM preincubated for 24 hrs followed by Cu2+-amyloid beta (1 to 42 residues) addition measured after 24 hrs by MTT assay; type: functional, cell-based
PC-12 [8] = experiment: Neuroprotective activity against Cu2+-amyloid beta (1 to 42 residues) induced cell death in rat PC12 cells by phase-contrast microscopy analysis; type: functional, cell-based
[9] = Metal chelating activity assessed as mole fraction of compound required to show 1:1 stoichiometry for Cu2+-compound complex at 10 uM by UV-vis spectrometry; type: physicochemical
[10] = Metal chelating activity of the compound assessed as formation of ferric complex at 50 uM by fluorescence spectrophotometry; type: physicochemical
Mus musculus [11] = experiment: Hepatotoxicity in scopolamine-induced memory deficit Kunming mouse model assessed as area of necrosis in hepatocytes at 10 mg/Kg, po for 6 days by hematoxylin and eosin-staining based microscopic analysis; type: toxicity, organism-based, Hepatocyte; details: 144 h
Mus musculus [12] = experiment: Cognitive enhancement activity in po dosed scopolamine-induced memory deficit Kunming mouse model assessed as increase in step-through latency time treated for 1 hr before training followed by scopolamine challenge 30 mins before training measured 24 hrs after training trial by passive avoidance test; type: functional, organism-based
in vitro = details: PAMPA
Description: Effective permeability of the compound after 18 hrs by PAMPA

[13] = Metal chelating activity assessed as Zn2+-compound complex formation at 50 uM by fluorescence spectrophotometry; type: physicochemical
[14] = Metal chelating activity of the compound assessed as formation of copper complex at 50 uM by fluorescence spectrophotometry; type: physicochemical
[15] = Metal chelating activity of the compound assessed as formation of copper complex at 10 uM by UV-vis spectrometry; type: physicochemical
Rattus norvegicus = species on record: Rattus norvegicus; experiment: Cytotoxicity against rat PC12 cells assessed as reduction in cell viability at 3.125 to 50 uM after 24 hrs by MTT assay; type: toxicity; details: pc-12, 24 h
Mus musculus [16] = experiment: Toxicity in scopolamine-induced memory deficit Kunming mouse model assessed as effect on survival at 2.5 to 10 mg/Kg, po for 7 days; type: organism-based; details: in vivo, 168 h
Mus musculus [17] = experiment: Hepatotoxicity in scopolamine-induced memory deficit Kunming mouse model assessed as distinct fatty degeneration in hepatocytes at 10 mg/Kg, po for 6 days by hematoxylin and eosin-staining based microscopic analysis; type: toxicity, organism-based; details: in vivo, 144 h
Mus musculus [18] = experiment: Hepatotoxicity in scopolamine-induced memory deficit Kunming mouse model assessed as increased aspartate aminotransferase at 10 mg/Kg, po for 6 days; type: toxicity, organism-based; details: in vivo, 144 h
Mus musculus [19] = experiment: Hepatotoxicity in scopolamine-induced memory deficit Kunming mouse model assessed as increase in number of inflammatory cells in portal fields of liver at 10 mg/Kg, po for 6 days by hematoxylin and eosin-staining based microscopic analysis; type: toxicity, organism-based; details: in vivo, 144 h
Mus musculus [20] = experiment: Hepatotoxicity in scopolamine-induced memory deficit Kunming mouse model assessed as increase in alanine aminotransferase levels at 10 mg/kg, po for 6 days; type: toxicity, organism-based; details: in vivo, 144 h
PC-12 [21] = experiment: Neuroprotective activity against amyloid beta (1 to 42 residues) induced cell death in rat PC12 cells by phase-contrast microscopy analysis; type: functional, cell-based
[22] = Inhibition of copper-mediated aggregation of amyloid beta (1 to 42 residues) (unknown origin) incubated for 46 to 48 hrs by thioflavin-T binding assay; type: physicochemical
Acetylcholinesterase [23] = biological target: T1, Acetylcholinesterase; experiment: Mixed-type inhibition of human erythrocyte AChE preincubated for 15 mins followed by addition of acetylthiocholine iodide as substrate in varying concentrations by Lineweaver-Burk reciprocal plot analysis
Mus musculus [24] = experiment: Toxicity in scopolamine-induced memory deficit Kunming mouse model assessed as change in body weight at 2.5 to 10 mg/Kg, po for 7 days; type: organism-based; details: in vivo, 168 h
Mus musculus [25] = experiment: Hepatotoxicity in Kunming mouse assessed as distinct fatty degeneration in hepatocytes at 3 mg/kg, po for 6 days by hematoxylin and eosin-staining based microscopic analysis; type: toxicity, organism-based; details: in vivo, 144 h
Mus musculus [26] = experiment: Hepatotoxicity in Kunming mouse assessed as increase in number of inflammatory cells in portal fields of liver at 3 mg/kg, po for 6 days by hematoxylin and eosin-staining based microscopic analysis; type: toxicity, organism-based; details: in vivo, 144 h
Mus musculus [27] = experiment: Hepatotoxicity in Kunming mouse assessed as area of necrosis in hepatocytes at 3 mg/kg, po for 6 days by hematoxylin and eosin-staining based microscopic analysis; type: toxicity, organism-based, Hepatocyte; details: 144 h

T1 sequence (P22303 whole entry): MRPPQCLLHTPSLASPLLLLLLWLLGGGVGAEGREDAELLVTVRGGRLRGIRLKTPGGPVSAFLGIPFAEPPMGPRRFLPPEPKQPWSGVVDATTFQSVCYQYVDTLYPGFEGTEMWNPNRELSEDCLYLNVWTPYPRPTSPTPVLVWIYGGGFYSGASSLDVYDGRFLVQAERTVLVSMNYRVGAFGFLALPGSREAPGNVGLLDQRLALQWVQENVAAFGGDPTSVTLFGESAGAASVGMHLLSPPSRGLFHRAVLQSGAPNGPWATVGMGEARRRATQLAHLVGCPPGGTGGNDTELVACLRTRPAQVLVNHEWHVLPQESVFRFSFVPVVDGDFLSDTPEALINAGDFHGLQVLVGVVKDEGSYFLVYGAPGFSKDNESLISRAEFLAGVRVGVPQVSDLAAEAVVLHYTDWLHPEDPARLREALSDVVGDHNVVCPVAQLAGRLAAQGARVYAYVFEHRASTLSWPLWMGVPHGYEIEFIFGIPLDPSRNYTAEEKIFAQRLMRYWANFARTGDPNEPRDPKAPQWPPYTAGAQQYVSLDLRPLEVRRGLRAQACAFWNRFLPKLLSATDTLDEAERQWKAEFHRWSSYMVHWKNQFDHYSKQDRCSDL

COC(=O)c1cccc(CN2CCC(CC3Cc4cc(OC)c(OC)cc4C3=O)CC2)n1 (configuration not stated)
IC50 (Acetylcholinesterase [1]): 5.78 µM
IC50 (Acetylcholinesterase [2]): 0.511 µM
IC50 (Cholinesterase [3]): 29.5 µM
IC50 (Cholinesterase [4]): 25.4 µM

COc1cc2c(cc1OC)C(=O)C(CC1CCN(Cc3ccccn3)CC1)C2 (configuration not stated)
IC50 (Acetylcholinesterase [1]): 0.147 µM
IC50 (Acetylcholinesterase [2]): 1.09 µM
IC50 (Cholinesterase [3]): 7.83 µM
IC50 (Cholinesterase [4]): 38.6 µM

COc1cc2c(cc1OC)C(=O)C(CC1CCN(Cc3ccccc3)CC1)C2 (configuration not stated)
inhibition [5]: > 10%

COc1cc2c(cc1OC)C(=O)C(CC1CCN(Cc3cccc(Cl)n3)CC1)C2 (configuration not stated)
IC50 (Acetylcholinesterase [1]): 0.883 µM
IC50 (Acetylcholinesterase [2]): 0.409 µM
IC50 (Cholinesterase [3]): 31.6 µM
IC50 (Cholinesterase [4]): 78.7 µM

COc1cc2c(cc1OC)C(=O)C(CC1CCN(Cc3ccccc3[N+](=O)[O-])CC1)C2 (configuration not stated)
IC50 (Acetylcholinesterase [1]): 3.11 µM
IC50 (Acetylcholinesterase [2]): 0.106 µM
IC50 (Cholinesterase [3]): 31.1 µM
IC50 (Cholinesterase [4]): 91.2 µM

COc1cc2c(cc1OC)C(=O)C(CC1CCN(Cc3cccc(C)n3)CC1)C2 (configuration not stated)
Activity (PC-12 [6]): Active
Activity (PC-12 [7]): Active
Activity (PC-12 [8]): Active
Activity [9]: 0.9 molar ratio
IC50 (Acetylcholinesterase [1]): 0.073 µM
Activity [10]: Active
Activity (Mus musculus [11]): Non-Toxic
Activity (Mus musculus [12]): Dose-dependent effect
Papp at 18 h (in vitro): 9.7 ×10⁻⁶ cm/s
Activity [13]: Active
Activity [14]: Active
Activity [15]: Active
Activity (Rattus norvegicus): Non-Toxic
Activity (Mus musculus [16]): Non-Toxic
inhibition [5]: 18.5%
IC50 (Acetylcholinesterase [2]): 0.085 µM
IC50 (Cholinesterase [3]): 20.5 µM
IC50 (Cholinesterase [4]): 65.7 µM
Activity (Mus musculus [17]): Non-Toxic
Activity (Mus musculus [18]): Non-Toxic
Activity (Mus musculus [19]): Non-Toxic
Activity (Mus musculus [20]): Non-Toxic
Activity (PC-12 [21]): Active
inhibition (INH) [22]: Dose-dependent effect
inhibition (Acetylcholinesterase [23]): Active
Activity (Mus musculus [24]): Non-Toxic

COc1cc2c(cc1OC)C(=O)C(CC1CCN(Cc3ccccc3C(F)(F)F)CC1)C2 (configuration not stated)
IC50 (Acetylcholinesterase [1]): 4.87 µM
IC50 (Acetylcholinesterase [2]): 0.7 µM
IC50 (Cholinesterase [3]): 31.7 µM
IC50 (Cholinesterase [4]): 41.4 µM

CN1[C@@H]2C[C@@H](OC(=O)[C@H](CO)c3ccccc3)C[C@H]1[C@@H]1O[C@H]12
Activity (Mus musculus [25]): Non-Toxic
Activity (Mus musculus [26]): Non-Toxic
Activity (Mus musculus [27]): Non-Toxic

COc1cc2c(cc1OC)C(=O)C(CC1CCN(Cc3ccc(Cl)cc3)CC1)C2 (configuration not stated)
IC50 (Acetylcholinesterase [1]): 2.86 µM
IC50 (Acetylcholinesterase [2]): 4.8 µM
IC50 (Cholinesterase [3]): 89.4 µM
IC50 (Cholinesterase [4]): 81.6 µM

COc1cc2c(cc1OC)C(=O)C(CC1CCN(Cc3cccc(F)n3)CC1)C2 (configuration not stated)
IC50 (Acetylcholinesterase [1]): 0.195 µM
IC50 (Acetylcholinesterase [2]): 0.246 µM
IC50 (Cholinesterase [3]): 21.1 µM
IC50 (Cholinesterase [4]): 38.9 µM

COc1cc2c(cc1OC)C(=O)C(CC1CCN(Cc3cccc(F)c3)CC1)C2 (configuration not stated)
IC50 (Acetylcholinesterase [1]): 0.054 µM
Papp at 18 h (in vitro): 11.5 ×10⁻⁶ cm/s
inhibition [5]: > 10%
IC50 (Acetylcholinesterase [2]): 0.068 µM
IC50 (Cholinesterase [3]): 2.66 µM
IC50 (Cholinesterase [4]): 26.7 µM

COc1cc2c(cc1OC)C(=O)C(CC1CCN(Cc3cccc(Br)n3)CC1)C2 (configuration not stated)
IC50 (Acetylcholinesterase [1]): 1.98 µM
IC50 (Acetylcholinesterase [2]): 0.253 µM
IC50 (Cholinesterase [3]): 17.5 µM

COc1cc2c(cc1OC)C(=O)C(CC1CCN(Cc3ccc4ccccc4n3)CC1)C2 (configuration not stated)
IC50 (Acetylcholinesterase [1]): 8.43 µM
IC50 (Acetylcholinesterase [2]): 8.71 µM
IC50 (Cholinesterase [3]): 9.68 µM
IC50 (Cholinesterase [4]): 6.35 µM

COc1cc2c(cc1OC)C(=O)C(CC1CCN(Cc3ccc(C(F)(F)F)cc3)CC1)C2 (configuration not stated)
IC50 (Acetylcholinesterase [1]): 5.43 µM
IC50 (Acetylcholinesterase [2]): 2.03 µM
IC50 (Cholinesterase [3]): 3.98 µM

COc1cc2c(cc1OC)C(=O)C(CC1CCN(Cc3ccccc3C)CC1)C2 (configuration not stated)
IC50 (Acetylcholinesterase [1]): 0.243 µM
IC50 (Acetylcholinesterase [2]): 0.184 µM
IC50 (Cholinesterase [3]): 38.1 µM
